{"source": "ChEMBL document CHEMBL1201862", "about": "“PubChem BioAssay data set” (2004)", "test_in_all_cases": "NCI-60 cell line screen, 48 h", "key": {"A498": {"system": "A498"}, "A549": {"system": "A549"}, "ACHN": {"system": "ACHN"}, "CCRF-CEM": {"system": "CCRF-CEM"}, "DMS-114": {"system": "DMS-114"}, "DMS-273": {"system": "DMS-273"}, "EKVX": {"system": "EKVX"}, "HCT-116": {"system": "HCT-116"}, "HL-60": {"system": "HL-60"}, "HOP-62": {"system": "HOP-62"}, "HOP-92": {"system": "HOP-92"}, "HT-29": {"system": "HT-29"}, "IGROV-1": {"system": "IGROV-1"}, "KM-20L2": {"system": "KM-20L2"}, "KM12": {"system": "KM12"}, "M14": {"system": "M14"}, "M19-MEL": {"system": "M19-MEL"}, "MOLT-4": {"system": "MOLT-4"}, "NCI-H226": {"system": "NCI-H226"}, "NCI-H23": {"system": "NCI-H23"}, "NCI-H460": {"system": "NCI-H460"}, "NCI-H522": {"system": "NCI-H522"}, "OVCAR-5": {"system": "OVCAR-5"}, "OVCAR-8": {"system": "OVCAR-8"}, "RXF 393": {"system": "RXF 393"}, "RXF 631": {"system": "RXF 631"}, "SF-295": {"system": "SF-295"}, "SK-MEL-28": {"system": "SK-MEL-28"}, "SK-OV-3": {"system": "SK-OV-3"}, "SNB-78": {"system": "SNB-78"}, "SR": {"system": "SR"}, "TK-10": {"system": "TK-10"}, "U-251": {"system": "U-251"}, "UACC-257": {"system": "UACC-257"}, "UACC-62": {"system": "UACC-62"}, "CAKI-1": {"system": "CAKI-1"}, "COLO 205": {"system": "COLO 205"}, "DLD-1": {"system": "DLD-1"}, "HCC 2998": {"system": "HCC 2998"}, "HCT-15": {"system": "HCT-15"}, "HOP-18": {"system": "HOP-18"}, "K562": {"system": "K562"}, "LOX IMVI": {"system": "LOX IMVI"}, "MCF7": {"system": "MCF7"}, "Malme-3M": {"system": "Malme-3M"}, "NCI/ADR-RES": {"system": "NCI/ADR-RES"}, "OVCAR-3": {"system": "OVCAR-3"}, "OVCAR-4": {"system": "OVCAR-4"}, "RPMI-8226": {"system": "RPMI-8226"}, "SF-268": {"system": "SF-268"}, "SF-539": {"system": "SF-539"}, "SK-MEL-2": {"system": "SK-MEL-2"}, "SK-MEL-5": {"system": "SK-MEL-5"}, "SN12C": {"system": "SN12C"}, "SNB-19": {"system": "SNB-19"}, "SNB-75": {"system": "SNB-75"}, "SW-620": {"system": "SW-620"}, "UO-31": {"system": "UO-31"}, "XF498": {"system": "XF498"}}, "note": "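Five compound concentrations were applied to cells in 96-well plates for 48 hours; endpoints were derived by simple linear interpolation of the resulting dose-response curve. At the GI50, growth is halved.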 Active and inactive are the calls of the source. No stated cut-off is given here; in the data, active = GI50 up to about 1.1 µM and inactive = higher."}
{"smiles": "NCC(=O)NC(CCCC(NC(=O)CN)P(=O)(O)O)P(=O)(O)O", "note": "(centres undefined)", "values": [{"measurement": "GI50", "setting": "A498", "value": "> 100 µM (inactive)"}, {"measurement": "GI50", "setting": "A549", "value": "> 100 µM (inactive)"}, {"measurement": "GI50", "setting": "ACHN", "value": "> 100 µM (inactive)"}, {"measurement": "GI50", "setting": "CCRF-CEM", "value": "> 100 µM (inactive)"}, {"measurement": "GI50", "setting": "DMS-114", "value": "> 100 µM (inactive)"}, {"measurement": "GI50", "setting": "DMS-273", "value": "> 100 µM (inactive)"}, {"measurement": "GI50", "setting": "EKVX", "value": "> 100 µM (inactive)"}, {"measurement": "GI50", "setting": "HCT-116", "value": "> 100 µM (inactive)"}, {"measurement": "GI50", "setting": "HL-60", "value": "> 100 µM (inactive)"}, {"measurement": "GI50", "setting": "HOP-62", "value": "> 100 µM (inactive)"}, {"measurement": "GI50", "setting": "HOP-92", "value": "> 100 µM (inactive)"}, {"measurement": "GI50", "setting": "HT-29", "value": "> 100 µM (inactive)"}, {"measurement": "GI50", "setting": "IGROV-1", "value": "> 100 µM (inactive)"}, {"measurement": "GI50", "setting": "KM-20L2", "value": "> 100 µM (inactive)"}, {"measurement": "GI50", "setting": "KM12", "value": "> 100 µM (inactive)"}, {"measurement": "GI50", "setting": "M14", "value": "> 100 µM (inactive)"}, {"measurement": "GI50", "setting": "M19-MEL", "value": "> 100 µM (inactive)"}, {"measurement": "GI50", "setting": "MOLT-4", "value": "> 100 µM (inactive)"}, {"measurement": "GI50", "setting": "NCI-H226", "value": "26 µM (inactive)"}, {"measurement": "GI50", "setting": "NCI-H23", "value": "> 100 µM (inactive)"}, {"measurement": "GI50", "setting": "NCI-H460", "value": "> 100 µM (inactive)"}, {"measurement": "GI50", "setting": "NCI-H522", "value": "> 100 µM (inactive)"}, {"measurement": "GI50", "setting": "OVCAR-5", "value": "> 100 µM (inactive)"}, {"measurement": "GI50", "setting": "OVCAR-8", "value": "> 100 µM (inactive)"}, {"measurement": "GI50", "setting": "RXF 393", "value": "> 100 µM (inactive)"}, {"measurement": "GI50", "setting": "RXF 631", "value": "> 100 µM (inactive)"}, {"measurement": "GI50", "setting": "SF-295", "value": "> 100 µM (inactive)"}, {"measurement": "GI50", "setting": "SK-MEL-28", "value": "> 100 µM (inactive)"}, {"measurement": "GI50", "setting": "SK-OV-3", "value": "> 100 µM (inactive)"}, {"measurement": "GI50", "setting": "SNB-78", "value": "> 100 µM (inactive)"}, {"measurement": "GI50", "setting": "SR", "value": "> 100 µM (inactive)"}, {"measurement": "GI50", "setting": "TK-10", "value": "> 100 µM (inactive)"}, {"measurement": "GI50", "setting": "U-251", "value": "> 100 µM (inactive)"}, {"measurement": "GI50", "setting": "UACC-257", "value": "> 100 µM (inactive)"}, {"measurement": "GI50", "setting": "UACC-62", "value": "> 100 µM (inactive)"}]}
{"smiles": "CCOC(=O)/C(O)=C1\\C(=O)N(C)C(=O)C1c1cccc(OC)c1", "note": "(centres undefined)", "values": [{"measurement": "GI50", "setting": "A498", "value": "95.3 µM (inactive)"}, {"measurement": "GI50", "setting": "A549", "value": "> 100 µM (inactive)"}, {"measurement": "GI50", "setting": "CAKI-1", "value": "> 100 µM (inactive)"}, {"measurement": "GI50", "setting": "CCRF-CEM", "value": "> 100 µM (inactive)"}, {"measurement": "GI50", "setting": "COLO 205", "value": "> 100 µM (inactive)"}, {"measurement": "GI50", "setting": "DLD-1", "value": "> 100 µM (inactive)"}, {"measurement": "GI50", "setting": "DMS-114", "value": "> 100 µM (inactive)"}, {"measurement": "GI50", "setting": "DMS-273", "value": "> 100 µM (inactive)"}, {"measurement": "GI50", "setting": "EKVX", "value": "> 100 µM (inactive)"}, {"measurement": "GI50", "setting": "HCC 2998", "value": "> 100 µM (inactive)"}, {"measurement": "GI50", "setting": "HCT-116", "value": "> 100 µM (inactive)"}, {"measurement": "GI50", "setting": "HCT-15", "value": "> 100", "unit": "µM"}, {"measurement": "GI50", "setting": "HL-60", "value": "> 100 µM (inactive)"}, {"measurement": "GI50", "setting": "HOP-18", "value": "> 100 µM (inactive)"}, {"measurement": "GI50", "setting": "HOP-62", "value": "> 100 µM (inactive)"}, {"measurement": "GI50", "setting": "HOP-92", "value": "> 100 µM (inactive)"}, {"measurement": "GI50", "setting": "HT-29", "value": "> 100 µM (inactive)"}, {"measurement": "GI50", "setting": "IGROV-1", "value": "> 100 µM (inactive)"}, {"measurement": "GI50", "setting": "K562", "value": "> 100 µM (inactive)"}, {"measurement": "GI50", "setting": "KM-20L2", "value": "> 100 µM (inactive)"}, {"measurement": "GI50", "setting": "KM12", "value": "> 100 µM (inactive)"}, {"measurement": "GI50", "setting": "LOX IMVI", "value": "> 100 µM (inactive)"}, {"measurement": "GI50", "setting": "M19-MEL", "value": "> 100 µM (inactive)"}, {"measurement": "GI50", "setting": "MCF7", "value": "> 100 µM (inactive)"}, {"measurement": "GI50", "setting": "MOLT-4", "value": "> 100 µM (inactive)"}, {"measurement": "GI50", "setting": "Malme-3M", "value": "> 100 µM (inactive)"}, {"measurement": "GI50", "setting": "NCI-H226", "value": "> 100 µM (inactive)"}, {"measurement": "GI50", "setting": "NCI-H23", "value": "> 100 µM (inactive)"}, {"measurement": "GI50", "setting": "NCI-H460", "value": "> 100 µM (inactive)"}, {"measurement": "GI50", "setting": "NCI-H522", "value": "> 100 µM (inactive)"}, {"measurement": "GI50", "setting": "NCI/ADR-RES", "value": "> 100 µM (inactive)"}, {"measurement": "GI50", "setting": "OVCAR-3", "value": "> 53.3 µM (inactive)"}, {"measurement": "GI50", "setting": "OVCAR-4", "value": "> 100 µM (inactive)"}, {"measurement": "GI50", "setting": "OVCAR-5", "value": "> 100 µM (inactive)"}, {"measurement": "GI50", "setting": "OVCAR-8", "value": "> 100 µM (inactive)"}, {"measurement": "GI50", "setting": "RPMI-8226", "value": "> 100 µM (inactive)"}, {"measurement": "GI50", "setting": "RXF 393", "value": "> 100 µM (inactive)"}, {"measurement": "GI50", "setting": "SF-268", "value": "> 100 µM (inactive)"}, {"measurement": "GI50", "setting": "SF-295", "value": "> 100 µM (inactive)"}, {"measurement": "GI50", "setting": "SF-539", "value": "> 100 µM (inactive)"}, {"measurement": "GI50", "setting": "SK-MEL-28", "value": "> 100 µM (inactive)"}, {"measurement": "GI50", "setting": "SK-MEL-2", "value": "> 100 µM (inactive)"}, {"measurement": "GI50", "setting": "SK-MEL-5", "value": "> 100 µM (inactive)"}, {"measurement": "GI50", "setting": "SK-OV-3", "value": "> 100 µM (inactive)"}, {"measurement": "GI50", "setting": "SN12C", "value": "> 100 µM (inactive)"}, {"measurement": "GI50", "setting": "SNB-19", "value": "> 100 µM (inactive)"}, {"measurement": "GI50", "setting": "SNB-75", "value": "> 100 µM (inactive)"}, {"measurement": "GI50", "setting": "SNB-78", "value": "> 100 µM (inactive)"}, {"measurement": "GI50", "setting": "SW-620", "value": "> 100 µM (inactive)"}, {"measurement": "GI50", "setting": "U-251", "value": "> 100 µM (inactive)"}, {"measurement": "GI50", "setting": "UACC-257", "value": "> 100 µM (inactive)"}, {"measurement": "GI50", "setting": "UACC-62", "value": "> 100 µM (inactive)"}, {"measurement": "GI50", "setting": "UO-31", "value": "> 100 µM (inactive)"}, {"measurement": "GI50", "setting": "XF498", "value": "> 100 µM (inactive)"}]}
